Measurements reported in ChEMBL document CHEMBL1131216, “Anhydrolide macrolides. 2. Synthesis and antibacterial activity of 2,3-anhydro-6-O-methyl 11,12-carbazate erythromycin A analogues” (1998).
Converted amounts (≈) assume the structure as drawn.

What was measured:
Type in all cases: functional
[1] = tested on: Streptococcus pneumoniae; experiment: In vitro antibacterial activity of ATCC 6303 strain of Gram positive bacteria Streptococcus pneumoniae
[2] = tested on: Streptococcus pyogenes; experiment: In vitro antibacterial activity of PIU2584 strain of Gram positive bacteria Streptococcus pyogenes
[3] = tested on: Staphylococcus aureus; experiment: In vitro antibacterial activity of 6538P strain of Gram positive bacteria Staphylococcus aureus
[4] = tested on: Staphylococcus aureus; experiment: In vitro antibacterial activity of A-5278 strain of Gram positive bacteria Staphylococcus aureus
[5] = tested on: Staphylococcus aureus; experiment: In vitro antibacterial activity of A5177 strain of Gram positive bacteria Staphylococcus aureus
[6] = tested on: Haemophilus influenzae; experiment: In vitro antibacterial activity of DILL strain of Gram negative bacteria Haemophilus influenzae
[7] = tested on: Streptococcus pneumoniae; experiment: In vitro antibacterial activity of 5979 strain of Gram positive bacteria Streptococcus pneumoniae
[8] = tested on: Streptococcus pyogenes; experiment: In vitro antibacterial activity of 930 strain of Gram positive bacteria Streptococcus pyogenes
[9] = tested on: Streptococcus pyogenes; experiment: In vitro antibacterial activity of EES61 strain of Gram positive bacteria Streptococcus pyogenes
[10] = tested on: Streptococcus pneumoniae; experiment: In vitro antibacterial activity of 5649 strain of Gram positive bacteria Streptococcus pneumoniae

Compound: CC[C@H]1OC(=O)/C(C)=C/[C@H](C)[C@@H](O[C@@H]2O[C@H](C)C[C@H](N(C)C)[C@H]2O)[C@@](C)(OC)C[C@@H](C)C(=O)[C@H](C)[C@H]2N(NCCc3ccccc3)C(=O)O[C@]12C
- MIC [1]: 0.25 µg/mL (≈ 0.349 µM)
- MIC [2]: 2 µg/mL (≈ 2.79 µM)
- MIC [3]: 0.78 µg/mL (≈ 1.09 µM)
- MIC [4]: > 100 µg/mL
- MIC [5]: 0.78 µg/mL (≈ 1.09 µM)
- MIC [6]: > 64 µg/mL
- MIC [7]: > 64 µg/mL
- MIC [8]: 64 µg/mL (≈ 89.4 µM)
- MIC [9]: 0.25 µg/mL (≈ 0.349 µM)
- MIC [10]: 2 µg/mL (≈ 2.79 µM)

Compound: CC[C@H]1OC(=O)/C(C)=C/[C@H](C)[C@@H](O[C@@H]2O[C@H](C)C[C@H](N(C)C)[C@H]2O)[C@@](C)(OC)C[C@@H](C)C(=O)[C@H](C)[C@H]2N(NCc3ccncc3)C(=O)O[C@]12C
- MIC [1]: 0.03 µg/mL (≈ 0.0427 µM)
- MIC [2]: 0.5 µg/mL (≈ 0.711 µM)
- MIC [3]: 0.39 µg/mL (≈ 0.555 µM)
- MIC [4]: > 100 µg/mL
- MIC [5]: 0.2 µg/mL (≈ 0.285 µM)
- MIC [6]: 8 µg/mL (≈ 11.4 µM)
- MIC [7]: > 128 µg/mL
- MIC [8]: > 128 µg/mL
- MIC [9]: 0.03 µg/mL (≈ 0.0427 µM)
- MIC [10]: 1 µg/mL (≈ 1.42 µM)

Compound: CC[C@H]1OC(=O)/C(C)=C/[C@H](C)[C@@H](O[C@@H]2O[C@H](C)C[C@H](N(C)C)[C@H]2O)[C@@](C)(OC)C[C@@H](C)C(=O)[C@H](C)[C@H]2N(NCc3ccccc3O)C(=O)O[C@]12C
- MIC [1]: 0.06 µg/mL (≈ 0.0836 µM)
- MIC [2]: 0.5 µg/mL (≈ 0.696 µM)
- MIC [3]: 0.2 µg/mL (≈ 0.279 µM)
- MIC [4]: > 100 µg/mL
- MIC [5]: 0.2 µg/mL (≈ 0.279 µM)
- MIC [6]: 2 µg/mL (≈ 2.79 µM)
- MIC [7]: > 64 µg/mL
- MIC [8]: > 64 µg/mL
- MIC [9]: 0.03 µg/mL (≈ 0.0418 µM)
- MIC [10]: 2 µg/mL (≈ 2.79 µM)

Compound: CC[C@H]1OC(=O)/C(C)=C/[C@H](C)[C@@H](O[C@@H]2O[C@H](C)C[C@H](N(C)C)[C@H]2O)[C@@](C)(OC)C[C@@H](C)C(=O)[C@H](C)[C@H]2N(NCc3ccc(C#N)cc3)C(=O)O[C@]12C
- MIC [1]: 0.03 µg/mL (≈ 0.0413 µM)
- MIC [2]: 0.5 µg/mL (≈ 0.688 µM)
- MIC [3]: 0.05 µg/mL (≈ 0.0688 µM)
- MIC [4]: > 100 µg/mL
- MIC [5]: 0.02 µg/mL (≈ 0.0275 µM)
- MIC [6]: 4 µg/mL (≈ 5.5 µM)
- MIC [7]: > 128 µg/mL
- MIC [8]: 128 µg/mL (≈ 176 µM)
- MIC [9]: 0.015 µg/mL (≈ 0.0206 µM)
- MIC [10]: 0.5 µg/mL (≈ 0.688 µM)

Compound: CC[C@H]1OC(=O)/C(C)=C/[C@H](C)[C@@H](O[C@@H]2O[C@H](C)C[C@H](N(C)C)[C@H]2O)[C@@](C)(OC)C[C@@H](C)C2=NN3C(=O)O[C@@]1(C)[C@H]3[C@H]2C
- MIC [1]: > 128 µg/mL
- MIC [2]: > 128 µg/mL
- MIC [3]: > 100 µg/mL
- MIC [4]: > 100 µg/mL
- MIC [5]: > 100 µg/mL
- MIC [6]: > 128 µg/mL
- MIC [7]: > 128 µg/mL
- MIC [8]: > 128 µg/mL
- MIC [9]: > 128 µg/mL
- MIC [10]: > 128 µg/mL

Compound: CC[C@H]1OC(=O)/C(C)=C/[C@H](C)[C@@H](O[C@@H]2O[C@H](C)C[C@H](N(C)C)[C@H]2O)[C@@](C)(OC)C[C@@H](C)[C@H]2[C@H](C)[C@H]3N(C(=O)O[C@]13C)N2CCCc1ccccc1
- MIC [1]: 16 µg/mL (≈ 22.4 µM)
- MIC [2]: 64 µg/mL (≈ 89.6 µM)
- MIC [3]: 100 µg/mL (≈ 140 µM)
- MIC [4]: 100 µg/mL (≈ 140 µM)
- MIC [5]: 50 µg/mL (≈ 70 µM)
- MIC [6]: > 64 µg/mL
- MIC [7]: 64 µg/mL (≈ 89.6 µM)
- MIC [8]: 64 µg/mL (≈ 89.6 µM)
- MIC [9]: 16 µg/mL (≈ 22.4 µM)
- MIC [10]: 64 µg/mL (≈ 89.6 µM)

Compound: CC[C@H]1OC(=O)/C(C)=C/[C@H](C)[C@@H](O[C@@H]2O[C@H](C)C[C@H](N(C)C)[C@H]2O)[C@@](C)(OC)C[C@@H](C)C(=O)[C@H](C)[C@H]2N(NCCCc3ccc(O)cc3)C(=O)O[C@]12C
- MIC [1]: 0.004 µg/mL (≈ 0.00536 µM)
- MIC [2]: 0.25 µg/mL (≈ 0.335 µM)
- MIC [3]: 0.2 µg/mL (≈ 0.268 µM)
- MIC [4]: > 100 µg/mL
- MIC [5]: 0.1 µg/mL (≈ 0.134 µM)
- MIC [6]: 4 µg/mL (≈ 5.36 µM)
- MIC [7]: > 64 µg/mL
- MIC [8]: > 64 µg/mL
- MIC [9]: 0.004 µg/mL (≈ 0.00536 µM)
- MIC [10]: 1 µg/mL (≈ 1.34 µM)

Compound: CC[C@H]1OC(=O)/C(C)=C/[C@H](C)[C@@H](O[C@@H]2O[C@H](C)C[C@H](N(C)C)[C@H]2O)[C@@](C)(OC)C[C@@H](C)C(=O)[C@H](C)[C@H]2N(NCc3ccccc3CO)C(=O)O[C@]12C
- MIC [1]: 0.03 µg/mL (≈ 0.041 µM)
- MIC [2]: 0.5 µg/mL (≈ 0.683 µM)
- MIC [3]: 0.2 µg/mL (≈ 0.273 µM)
- MIC [4]: > 100 µg/mL
- MIC [5]: 0.2 µg/mL (≈ 0.273 µM)
- MIC [6]: 4 µg/mL (≈ 5.47 µM)
- MIC [7]: > 128 µg/mL
- MIC [8]: > 128 µg/mL
- MIC [9]: 0.03 µg/mL (≈ 0.041 µM)
- MIC [10]: 1 µg/mL (≈ 1.37 µM)

Compound: CC[C@H]1OC(=O)/C(C)=C/[C@H](C)[C@@H](O[C@@H]2O[C@H](C)C[C@H](N(C)C)[C@H]2O)[C@@](C)(OC)C[C@@H](C)C(=O)[C@H](C)[C@H]2N(NCc3ccc([N+](=O)[O-])cc3)C(=O)O[C@]12C
- MIC [1]: 0.03 µg/mL (≈ 0.0402 µM)
- MIC [2]: 1 µg/mL (≈ 1.34 µM)
- MIC [3]: 0.05 µg/mL (≈ 0.0669 µM)
- MIC [4]: > 100 µg/mL
- MIC [5]: 0.05 µg/mL (≈ 0.0669 µM)
- MIC [6]: 8 µg/mL (≈ 10.7 µM)
- MIC [7]: > 128 µg/mL
- MIC [8]: 128 µg/mL (≈ 171 µM)
- MIC [9]: 0.03 µg/mL (≈ 0.0402 µM)
- MIC [10]: 1 µg/mL (≈ 1.34 µM)

Compound: CC[C@H]1OC(=O)/C(C)=C/[C@H](C)[C@@H](O[C@@H]2O[C@H](C)C[C@H](N(C)C)[C@H]2O)[C@@](C)(OC)C[C@@H](C)C(=O)[C@@H](C)[C@H]2N(NC/C=C/c3ccccc3)C(=O)O[C@]12C
- MIC [1]: 1 µg/mL (≈ 1.37 µM)
- MIC [2]: 8 µg/mL (≈ 11 µM)
- MIC [3]: 12.5 µg/mL (≈ 17.2 µM)
- MIC [4]: 50 µg/mL (≈ 68.7 µM)
- MIC [5]: 6.2 µg/mL (≈ 8.52 µM)
- MIC [6]: > 64 µg/mL
- MIC [7]: 16 µg/mL (≈ 22 µM)
- MIC [8]: 16 µg/mL (≈ 22 µM)
- MIC [9]: 4 µg/mL (≈ 5.49 µM)
- MIC [10]: 4 µg/mL (≈ 5.49 µM)
